Results published in patent US9927424B2, “Assays for identifying compounds that modulate bitter taste” (Chromocell Corporation, priority 2013, dated 2018).

Legend:
Assay type in all cases: cell-based
TAS2R14 = target: T1, TAS2R14 (Homo sapiens, UniProt Q9NYV8); test: Calcium fluorescence functional assay, TAS2R14 cell line with mouse Gα15; settings: for TAS2R14 bitter receptor activity (functional response): 20 mM tastant, change in intracellular calcium; for EC50: approximately, increasing concentrations of tastant
T1 construct: expressed in transfected cells
T1 sequence (Q9NYV8 1-317): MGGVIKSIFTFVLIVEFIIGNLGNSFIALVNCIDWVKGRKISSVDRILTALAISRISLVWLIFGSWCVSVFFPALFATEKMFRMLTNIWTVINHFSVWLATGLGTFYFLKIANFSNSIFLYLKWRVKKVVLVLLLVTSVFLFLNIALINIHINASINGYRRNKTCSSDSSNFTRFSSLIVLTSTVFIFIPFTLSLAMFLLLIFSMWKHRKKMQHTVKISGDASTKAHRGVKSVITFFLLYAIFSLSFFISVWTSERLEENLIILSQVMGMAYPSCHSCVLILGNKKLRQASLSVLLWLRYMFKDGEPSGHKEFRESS
Description: (§1) A panel of cell lines expressing eight specific bitter taste receptors, a subset of the panel of twenty-five bitter receptors described in International Patent Application Publication WO 2010/088633 (see, e.g., Example 26), was used for the purpose of these analyses. Accordingly, each cell line of the panel expressed a human bitter taste receptor and mouse Gα15 signaling protein.
(§2) Each of the Examples below utilized the following functional assay: • Day 1: Stable cell lines were seeded onto black wall/clear bottom 96-well, plates (e.g., Corning, 3904). Approximately 40K cells were added per well and incubated at 37° C., 5% CO2 overnight in cell growth media (DMEM (Sigma, D5796) supplemented with 10% Fetal Bovine Serum (Sigma, 5178), 2 mM Glutamine (Sigma, G7513)). • Day 2: Growth media was discarded and cells were incubated at 37° C., 5% CO2 for 60 minutes in 100 ul of load solution containing 1× Ca-3 dye (Molecular Devices, R8090), 1% DMSO in buffer containing 130 mM NaCl, 2 mM CaCl2, 5 mM KCl, 1.2 mM MgCl2, 10 mM HEPES and 10 mM Glucose (pH 7.0). Probenecid was not included in the load solution. • Functional assay: After dye loading, cell plates were placed in a fluorescent plate reader (e.g., FDSS6000 (Hamamatsu, Japan)) and receptor stimulation was measured by adding 50 ul of 3× concentrated ligand/agonist stock. Fluorescence was monitored continuously for 10 s before agonist addition and for 100-250 s after stimulation with agonist.
(§3) Receptor Activation is defined as follows: • % Activation=[((Maximum signal fluorescence−Minimum signal fluorescence)−(Maximum control fluorescence−Minimum control fluorescence))/(Maximum buffer fluorescence−Minimum buffer fluorescence)]*100 • Functional Response=[(Maximum signal fluorescence−Minimum signal fluorescence)−(Maximum control fluorescence−Minimum control fluorescence)] • Signal fluorescence: refers to the change in fluorescence seen with addition of ligand • Control fluorescence: refers to the change in fluorescence seen with addition of buffer (negative control) • Calcium signals from ligand and control were normalized to the basal fluorescence of the cells prior to the stimulation.
(§4) A concentration analysis was performed and EC50 values were calculated by nonlinear regression using the formula: Y=Bottom+(Top−Bottom)/(1+10^((Log EC50−X)*Hill Slope)), X=log of dose or concentration, Y=Response (increasing as X increases), Top=maximum signal, Bottom=minimum signal. EC50 (half maximal effective concentration) refers to the molar concentration of the agonist which produces 50% of the maximum possible effective response from that agonist.

TAS2R39 = target: T2, TAS2R39 (Homo sapiens, UniProt P59534); test: Calcium fluorescence functional assay, TAS2R39 cell line with mouse Gα15; settings: for TAS2R39 bitter receptor activity (functional response): 20 mM tastant, change in intracellular calcium; for EC50: approximately, increasing concentrations of tastant
T2 construct: expressed in transfected cells
T2 sequence (P59534 1-338): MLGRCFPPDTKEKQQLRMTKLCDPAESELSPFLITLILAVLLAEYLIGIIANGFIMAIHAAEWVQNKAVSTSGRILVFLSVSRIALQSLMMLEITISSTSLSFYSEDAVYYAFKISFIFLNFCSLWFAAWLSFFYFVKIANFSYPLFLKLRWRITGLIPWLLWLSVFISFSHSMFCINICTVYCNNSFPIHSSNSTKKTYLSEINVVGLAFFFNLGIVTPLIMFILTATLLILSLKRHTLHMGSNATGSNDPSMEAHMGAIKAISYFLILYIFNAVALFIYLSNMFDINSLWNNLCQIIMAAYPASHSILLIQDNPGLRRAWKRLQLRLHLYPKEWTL
Description: as §1, §2, §3, §4

TAS2R60 = target: T3, TAS2R60 (Homo sapiens, UniProt P59551); test: Calcium fluorescence functional assay, TAS2R60 cell line with mouse Gα15; settings: for TAS2R60 bitter receptor activity (functional response): 20 mM tastant, change in intracellular calcium, data for potassium nitrate and potassium phosphate (dibasic) preliminary; for EC50: approximately, increasing concentrations of tastant
T3 construct: expressed in transfected cells
T3 sequence (P59551 1-318): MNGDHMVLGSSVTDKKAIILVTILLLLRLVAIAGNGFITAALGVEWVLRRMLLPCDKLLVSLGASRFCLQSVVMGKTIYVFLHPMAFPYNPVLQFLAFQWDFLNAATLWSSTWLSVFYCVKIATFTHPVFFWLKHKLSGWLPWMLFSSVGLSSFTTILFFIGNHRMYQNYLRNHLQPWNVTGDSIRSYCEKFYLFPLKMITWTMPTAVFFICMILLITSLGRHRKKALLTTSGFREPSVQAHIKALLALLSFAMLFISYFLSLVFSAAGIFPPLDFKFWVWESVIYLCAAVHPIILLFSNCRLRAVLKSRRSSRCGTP
Description: Accordingly, each cell line of the panel expressed a human bitter taste receptor and mouse Gα15 signaling protein.
Probenecid was not included in the load solution. • Functional assay: After dye loading, cell plates were placed in a fluorescent plate reader (e.g., FDSS6000 (Hamamatsu, Japan)) and receptor stimulation was measured by adding 50 ul of 3× concentrated ligand/agonist stock. Fluorescence was monitored continuously for 10 s before agonist addition and for 100-250 s after stimulation with agonist.
as §3
A concentration analysis was performed and EC50 values were calculated by nonlinear regression using the formula: Y=Bottom+(Top−Bottom)/(1+10^((Log EC50−X)*Hill Slope)), X=log of dose or concentration, Y=Response (increasing as X increases), Top=maximum signal, Bottom=minimum signal.

TAS2R38 (PAV) = target: T4, TAS2R38 (PAV) (Homo sapiens, UniProt P59533, A49P/I296V); test: Calcium fluorescence functional assay, TAS2R38 (PAV) cell line with mouse Gα15; settings: for TAS2R38 (PAV) bitter receptor activity (functional response): 20 mM tastant, change in intracellular calcium; for EC50: approximately, increasing concentrations of tastant
T4 construct: expressed in transfected cells
T4 sequence (P59533 1-333 A49P/I296V): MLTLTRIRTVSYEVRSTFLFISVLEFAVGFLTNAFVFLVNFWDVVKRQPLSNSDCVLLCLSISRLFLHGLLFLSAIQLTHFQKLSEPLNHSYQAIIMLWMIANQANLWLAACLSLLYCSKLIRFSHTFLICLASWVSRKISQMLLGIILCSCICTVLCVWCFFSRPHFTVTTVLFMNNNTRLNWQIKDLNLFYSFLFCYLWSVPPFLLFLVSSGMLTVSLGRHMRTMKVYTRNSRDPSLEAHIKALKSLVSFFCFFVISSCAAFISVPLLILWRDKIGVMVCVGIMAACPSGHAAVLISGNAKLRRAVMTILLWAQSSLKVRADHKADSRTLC
Description: as §1, §2, §3, §4

Row | Compound | TAS2R14 bitter receptor activity (functional response) (TAS2R14) | TAS2R39 bitter receptor activity (functional response) (TAS2R39) | TAS2R60 bitter receptor activity (functional response) (TAS2R60) | TAS2R38 (PAV) bitter receptor activity (functional response) (TAS2R38 (PAV)) | EC50 (TAS2R14) | EC50 (TAS2R60) | EC50 (TAS2R39) | EC50 (TAS2R38 (PAV))
1 | C/C=C/C=C/C(=O)[O-].[K+] [potassium sorbate] | induced | induced | induced | induced |  |  |  | 
2 | CC(=O)[O-].[K+] [potassium acetate] | induced | did not induce | induced | did not induce | 5 to 10 mM | 5 to 10 mM |  | 
3 | O=C([O-])c1ccccc1.[K+] [potassium benzoate] | induced | induced | induced | induced | 5 to 10 mM | 5 to 10 mM | 5 to 10 mM | 5 to 10 mM
4 | O=S(=O)([O-])[O-].[K+].[K+] [potassium sulfate] | induced | induced | induced | induced |  |  |  | 
5 | O=C([O-])[C@H](O)[C@@H](O)[C@H](O)[C@H](O)CO.[K+] [potassium gluconate] | induced | induced | did not induce | induced |  |  |  | 
6 | O=P([O-])([O-])O.[K+].[K+] [potassium phosphate (dibasic)] | induced | induced | induced | induced |  |  |  | 
7 | [Cl-].[K+] [KCl] |  | strongly and specifically responded |  | strongly and specifically responded |  |  | 5 to 15 mM | 5 to 15 mM
8 | O=[N+]([O-])[O-].[K+] [potassium nitrate] | induced | induced | induced | induced |  |  |  | 
